Test results reported in patent publication US9073830B2 (Hyundai Pharm Co., Ltd., priority 2011, dated 2015).

Key:
[1] = target: T1, mouse 11β-HSD1 (Mus musculus, UniProt P50172); assay: Enzyme activity analysis on mouse 11β-HSD1 (HTRF cortisol, liver microsomes); type: biochemical; settings: second value of cell
T1 construct: 100 ug/ml human/mouse liver microsomes; from tissue; host or cells: mouse liver microsomes
Procedure: (§1) After culturing at 37° C. for 2 hours, 5 μl of cryptate-labeled anti-cortisol antibody and 5 μl of d2-labeled cortisol were added thereto. After further culturing at room temperature for 2 hours, a homogeneous time-resolved fluorescence (HTRF, Cisbio) signal was measured. From each analysis, based on a standard curve calculated using cortisols of several known concentrations, an amount of produced cortisol was tested.
(§2) While an amount of cortisol, produced without the compound, was used as a control, an inhibition percentage by the test compound, at each concentration, was calculated. By using an inhibition curve calculated by coordinates of inhibition percentage to test compound concentration, an IC50 value of the compound on 11β-HSD1 was obtained.

[2] = target: T2, human 11β-HSD1 (Homo sapiens, UniProt P28845); assay: Enzyme activity analysis on human 11β-HSD1 (HTRF cortisol, liver microsomes); type: biochemical; settings: first value of cell
T2 construct: 100 ug/ml human/mouse liver microsomes; from tissue; host or cells: human liver microsomes
Procedure: as §1, §2

T2 sequence (P28845 whole entry): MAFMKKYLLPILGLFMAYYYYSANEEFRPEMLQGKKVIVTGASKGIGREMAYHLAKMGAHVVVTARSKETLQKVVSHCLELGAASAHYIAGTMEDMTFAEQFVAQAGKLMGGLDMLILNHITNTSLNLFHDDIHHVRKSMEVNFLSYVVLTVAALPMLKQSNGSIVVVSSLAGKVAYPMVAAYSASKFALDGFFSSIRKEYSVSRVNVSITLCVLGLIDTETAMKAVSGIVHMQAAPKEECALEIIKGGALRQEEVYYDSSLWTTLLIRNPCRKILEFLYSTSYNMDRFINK
T1 sequence (P50172 whole entry): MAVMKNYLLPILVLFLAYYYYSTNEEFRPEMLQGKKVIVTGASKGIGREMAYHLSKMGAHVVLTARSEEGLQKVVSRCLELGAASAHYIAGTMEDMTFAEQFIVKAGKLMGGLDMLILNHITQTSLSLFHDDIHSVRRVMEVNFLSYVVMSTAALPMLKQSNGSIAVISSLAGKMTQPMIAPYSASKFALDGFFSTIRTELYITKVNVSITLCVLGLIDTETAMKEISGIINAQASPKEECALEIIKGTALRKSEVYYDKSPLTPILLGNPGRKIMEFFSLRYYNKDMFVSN

| IC50 [1] [µM] | IC50 [2] [µM] | Structure (SMILES) |
| --- | --- | --- |
| 0.19 | 0.04 | CC(C)(NS(=O)(=O)c1ccccc1)C(=O)NC1C2CC3CC(C2)CC1C3 (stereo not shown) [compound 1, N-(adamantane-2-yl)-2-methyl-2-(phenylsulfonamido)propanamide] |
| 0.888 | 0.1 | CC(C)(NS(=O)(=O)c1ccc(F)cc1)C(=O)NC1C2CC3CC(C2)CC1C3 (stereo not shown) [compound 2, N-(adamantane-2-yl)-2-methyl-2-(4-fluorophenylsulfonamido)propanamide] |
| 1.7 | 1.33 | CC(C)(NS(=O)(=O)c1ccc([N+](=O)[O-])cc1)C(=O)NC1C2CC3CC(C2)CC1C3 (stereo not shown) [compound 3, N-(adamantane-2-yl)-2-methyl-2-(4-nitrophenylsulfonamido)propanamide] |
| 1.68 | 1.32 | CC(C)(NS(=O)(=O)c1ccc(OC(F)(F)F)cc1)C(=O)NC1C2CC3CC(C2)CC1C3 (stereo not shown) [compound 4, N-(adamantane-2-yl)-2-methyl-2-(4-(trifluoromethoxy)phenylsulfonamido)propanamide] |
| 1.05 | 0.43 | CC(C)(NS(=O)(=O)c1ccc(Cl)cc1)C(=O)NC1C2CC3CC(C2)CC1C3 (stereo not shown) [compound 5, N-(adamantane-2-yl)-2-methyl-2-(4-chlorophenylsulfonamido)propanamide] |
| 0.735 | 0.212 | CC(C)(NS(=O)(=O)c1cccc(Cl)c1)C(=O)NC1C2CC3CC(C2)CC1C3 (stereo not shown) [compound 10, N-(adamantane-2-yl)-2-methyl-2-(3-chlorophenylsulfonamido)propanamide] |
| – | 0.35 | CC(C)(NS(=O)(=O)c1ccc(Cl)c(Cl)c1)C(=O)NC1C2CC3CC(C2)CC1C3 (stereo not shown) [compound 11, N-(adamantane-2-yl)-2-methyl-2-(3,4-dichlorophenylsulfonamido)propanamide] |
| 0.051 | 0.02 | CC(C)(NS(=O)(=O)c1ccccc1Br)C(=O)NC1C2CC3CC(C2)CC1C3 (stereo not shown) [compound 12, N-(adamantane-2-yl)-2-methyl-2-(2-bromophenylsulfonamido)propanamide] |
| 0.313 | 0.036 | Cc1ccccc1S(=O)(=O)NC(C)(C)C(=O)NC1C2CC3CC(C2)CC1C3 (stereo not shown) [compound 15, N-(adamantane-2-yl)-2-methyl-2-(2-methylphenylsulfonamido)propanamide] |
| 0.255 | 0.034 | CC(C)(NS(=O)(=O)c1ccccc1F)C(=O)NC1C2CC3CC(C2)CC1C3 (stereo not shown) [compound 16, N-(adamantane-2-yl)-2-methyl-2-(2-fluorophenylsulfonamido)propanamide] |
| – | 1.14 | CC(C)(NS(=O)(=O)c1ccc(C(C)(C)C)cc1)C(=O)NC1C2CC3CC(C2)CC1C3 (stereo not shown) [compound 18, N-(adamantane-2-yl)-2-methyl-2-(4-(t-butyl)phenylsulfonamido)propanamide] |
| – | 0.466 | CC(C)(NS(=O)(=O)c1ccc2ccccc2c1)C(=O)NC1C2CC3CC(C2)CC1C3 (stereo not shown) [compound 21, N-(adamantane-2-yl)-2-methyl-2-(naphthalene-2-sulfonamido)propanamide] |
| – | 0.404 | COc1ccc(S(=O)(=O)NC(C)(C)C(=O)NC2C3CC4CC(C3)CC2C4)cc1 (stereo not shown) [compound 24, N-(adamantane-2-yl)-2-methyl-2-(4-methoxyphenylsulfonamido)propanamide] |
| 1.12 | 0.555 | Cc1ccc(S(=O)(=O)NC(C)(C)C(=O)NC2C3CC4CC(C3)CC2C4)cc1F (stereo not shown) [compound 27, N-(adamantane-2-yl)-2-methyl-2-(4-methyl-3-fluorophenylsulfonamido)propanamide] |
| 0.437 | 0.133 | Cc1cccc(S(=O)(=O)NC(C)(C)C(=O)NC2C3CC4CC(C3)CC2C4)c1 (stereo not shown) [compound 28, N-(adamantane-2-yl)-2-methyl-2-(3-methylphenylsulfonamido)propanamide] |
| 0.329 | 0.216 | COc1cccc(S(=O)(=O)NC(C)(C)C(=O)NC2C3CC4CC(C3)CC2C4)c1 (stereo not shown) [compound 29, N-(adamantane-2-yl)-2-methyl-2-(3-methoxyphenylsulfonamido)propanamide] |
| 0.462 | 0.192 | CC(C)(NS(=O)(=O)c1cccc(F)c1)C(=O)NC1C2CC3CC(C2)CC1C3 (stereo not shown) [compound 30, N-(adamantane-2-yl)-2-methyl-2-(3-fluorophenylsulfonamido)propanamide] |

Further lines, the molecule ahead of its results:

| Structure (SMILES) | IC50 [1] [µM] | IC50 [2] [µM] |
| --- | --- | --- |
| CC(C)(NS(=O)(=O)c1ccccc1Cl)C(=O)NC1C2CC3CC(C2)CC1C3 (stereo not shown) [compound 6, N-(adamantane-2-yl)-2-methyl-2-(2-chlorophenylsulfonamido)propanamide] | 0.04 | 0.02 |
| Cc1c(Cl)cccc1S(=O)(=O)NC(C)(C)C(=O)NC1C2CC3CC(C2)CC1C3 (stereo not shown) [compound 7, N-(adamantane-2-yl)-2-methyl-2-(3-chloro-2methylphenylsulfonamido)propanamide] | 0.33 | 0.08 |
| CC(C)(NS(=O)(=O)c1cccc(Cl)c1Cl)C(=O)NC1C2CC3CC(C2)CC1C3 (stereo not shown) [compound 8, N-(adamantane-2-yl)-2-methyl-2-(2,3-dichlorophenylsulfonamido)propanamide] | 0.264 | 0.052 |
| CC(C)(NS(=O)(=O)c1cc(Cl)ccc1Cl)C(=O)NC1C2CC3CC(C2)CC1C3 (stereo not shown) [compound 9, N-(adamantane-2-yl)-2-methyl-2-(2,5-dichlorophenylsulfonamido)propanamide] | > 2.5 | 0.091 |
| CC(C)(NS(=O)(=O)c1ccccc1C(F)(F)F)C(=O)NC1C2CC3CC(C2)CC1C3 (stereo not shown) [compound 13, N-(adamantane-2-yl)-2-methyl-2-(2-trifluoromethylphenylsulfonamido)propanamide] | 0.267 | 0.032 |
| CC(C)(NS(=O)(=O)c1c(Cl)cc(Cl)cc1Cl)C(=O)NC1C2CC3CC(C2)CC1C3 (stereo not shown) [compound 14, N-(adamantane-2-yl)-2-methyl-2-(2,4,6-trichlorophenylsulfonamido)propanamide] | – | 0.17 |
| CC(C)(NS(=O)(=O)c1cccc2cccnc12)C(=O)NC1C2CC3CC(C2)CC1C3 (stereo not shown) [compound 17, N-(adamantane-2-yl)-2-methyl-2-(quinoline-8-sulfonamido)propanamide] | 0.008 | 0.008 |
| CC(C)(NS(=O)(=O)c1cccc(C(F)(F)F)c1)C(=O)NC1C2CC3CC(C2)CC1C3 (stereo not shown) [compound 19, N-(adamantane-2-yl)-2-methyl-2-(3-trifluoromethylphenylsulfonamido)propanamide] | – | 0.478 |
| CC(C)(NS(=O)(=O)c1cccc2ccccc12)C(=O)NC1C2CC3CC(C2)CC1C3 (stereo not shown) [compound 20, N-(adamantane-2-yl)-2-methyl-2-(naphthalene-1-sulfonamido)propanamide] | – | 0.304 |
| CC(C)(NS(=O)(=O)Cc1ccccc1[N+](=O)[O-])C(=O)NC1C2CC3CC(C2)CC1C3 (stereo not shown) [compound 22, N-(adamantane-2-yl)-2-methyl-2-((2-nitrophenyl)methylsulfonamido)propanamide] | 1.06 | 0.033 |
| CC(C)(NS(=O)(=O)c1ccccc1OC(F)(F)F)C(=O)NC1C2CC3CC(C2)CC1C3 (stereo not shown) [compound 25, N-(adamantane-2-yl)-2-methyl-2-(2-(trifluoromethoxy)phenylsulfonamido)propanamide] | 0.42 | 0.045 |
| CC(C)(NS(=O)(=O)c1cc(Cl)cc(Cl)c1)C(=O)NC1C2CC3CC(C2)CC1C3 (stereo not shown) [compound 26, N-(adamantane-2-yl)-2-methyl-2-(3,5-dichlorophenylsulfonamido)propanamide] | > 2.5 | 1.27 |
| CC(C)(NS(=O)(=O)c1ccc(Cl)cc1F)C(=O)NC1C2CC3CC(C2)CC1C3 (stereo not shown) [compound 31, N-(adamantane-2-yl)-2-methyl-2-(4-chloro-2-fluorophenylsulfonamido)propanamide] | 1.06 | 0.409 |
| CC(C)(NS(=O)(=O)c1ccc(F)cc1C(F)(F)F)C(=O)NC1C2CC3CC(C2)CC1C3 (stereo not shown) [compound 32, N-(adamantane-2-yl)-2-methyl-2-(4-fluoro-2-trifluoromethylphenylsulfonamido)propanamide] | 0.583 | 0.051 |
| CC(C)(NS(=O)(=O)Cc1ccc(Cl)cc1)C(=O)NC1C2CC3CC(C2)CC1C3 (stereo not shown) [compound 33, N-(adamantane-2-yl)-2-methyl-2-((4-chlorophenyl)methylsulfonamido)propanamide] | 1.67 | 0.065 |
| CC(C)(NS(=O)(=O)Cc1ccccc1Cl)C(=O)NC1C2CC3CC(C2)CC1C3 (stereo not shown) [compound 34, N-(adamantane-2-yl)-2-methyl-2-((2-chlorophenyl)methylsulfonamido)propanamide] | 0.7 | 0.048 |
| CC(C)(NS(=O)(=O)Cc1ccc(Cl)c(Cl)c1)C(=O)NC1C2CC3CC(C2)CC1C3 (stereo not shown) [compound 35, N-(adamantane-2-yl)-2-methyl-2-((3,4-dichlorophenyl)methylsulfonamido)propanamide] | > 2.5 | > 2.5 |
| CC(C)(NS(=O)(=O)Cc1ccc(C(F)(F)F)cc1)C(=O)NC1C2CC3CC(C2)CC1C3 (stereo not shown) [compound 36, N-(adamantane-2-yl)-2-methyl-2-((4-trifluoromethylphenyl)methylsulfonamido)propanamide] | > 2.5 | 0.04 |
| CN(C(C)(C)C(=O)NC1C2CC3CC1CC(C(N)=O)(C3)C2)S(=O)(=O)c1ccccc1F (stereo not shown) [compound 195, N-4-(2-(2-fluoro-N-methylphenylsulfonamido)-2-methylpropanamido)adamantane-1-carboxyamide] | 0.015 | – |
